Source: patent US20250215030A1, “STAT MODULATORS AND USES THEREOF” (Recludix Pharma, Inc., priority 2022, published 2025)

Legend:
[1] = target: T1, pSTAT3 (pY705-STAT3) (Homo sapiens, UniProt P40763); assay: MSD-pSTAT-PBMC Assay (pSTAT3, IL-6 stimulated); format: cell-based; settings: PBMC, compound 3 hrs, then 10 ng/mL IL-6 for 10 min; MSD pY705-STAT3; read-out: pSTAT3
T1 construct: host or cells: cryopreserved PBMC
Method in brief: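 Human PBMCs (50,000 cells/well for STAT3, 25,000 for STAT6) treated with compound 3 h, then stimulated 10 min with 10 ng/mL IL-6 or 1 ng/mL IL-4. Lysate pSTAT3 (pY705) or pSTAT6 (pY641) measured by MSD sandwich electrochemiluminescence. Signal minus unstimulated, normalized to DMSO; IC50 by variable-slope nonlinear regression.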

[2] = target: T2, pSTAT6 (pY641-STAT6) (Homo sapiens, UniProt P42226); assay: MSD-pSTAT-PBMC Assay (pSTAT6, IL-4 stimulated); format: cell-based; settings: compound 3 hrs, then 1 ng/mL IL-4 for 10 min
T2 construct: host or cells: cryopreserved PBMC
T2 sequence (P42226 1-847): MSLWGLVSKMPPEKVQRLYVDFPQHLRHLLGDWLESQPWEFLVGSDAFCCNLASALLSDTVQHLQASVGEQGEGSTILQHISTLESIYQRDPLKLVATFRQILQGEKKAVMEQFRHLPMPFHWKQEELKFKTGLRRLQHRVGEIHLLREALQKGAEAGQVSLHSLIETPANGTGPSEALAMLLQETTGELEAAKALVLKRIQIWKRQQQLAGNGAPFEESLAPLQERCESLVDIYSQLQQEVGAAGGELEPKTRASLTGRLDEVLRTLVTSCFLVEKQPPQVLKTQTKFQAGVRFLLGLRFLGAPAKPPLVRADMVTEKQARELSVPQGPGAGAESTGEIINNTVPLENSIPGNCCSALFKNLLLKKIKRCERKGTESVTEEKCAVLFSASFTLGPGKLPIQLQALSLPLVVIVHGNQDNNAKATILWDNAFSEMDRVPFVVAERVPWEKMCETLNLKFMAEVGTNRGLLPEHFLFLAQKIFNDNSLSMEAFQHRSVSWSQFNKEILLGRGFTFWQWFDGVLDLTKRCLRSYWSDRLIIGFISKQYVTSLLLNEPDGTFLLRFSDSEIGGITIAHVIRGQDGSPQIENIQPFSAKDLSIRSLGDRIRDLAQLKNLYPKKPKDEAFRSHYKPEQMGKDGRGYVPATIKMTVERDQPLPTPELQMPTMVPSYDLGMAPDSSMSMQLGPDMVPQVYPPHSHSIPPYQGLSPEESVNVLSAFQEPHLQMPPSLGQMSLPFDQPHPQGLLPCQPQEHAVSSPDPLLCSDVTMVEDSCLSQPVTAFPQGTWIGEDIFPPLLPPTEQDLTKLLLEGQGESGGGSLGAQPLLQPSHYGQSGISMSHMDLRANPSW
Text: Cryopreserved Peripheral Blood Mononuclear Cells (PBMC) are from AllCells. Recombinant Human IL-4 and IL-6 are from Peprotech. Mouse monoclonal anti-STAT3 antibody, rabbit monoclonal anti-pY705-STAT3 antibody, rabbit monoclonal Anti-pY641-STAT6 antibody, and lysis buffer are from Cell Signaling Technology (CST). Mouse monoclonal anti-STAT6 antibody is from BioLegend. Assay plates, blocker, and anti-rabbit secondary antibody are from Meso Scale Discovery (MSD).
Cryopreserved PBMCs were thawed out and allowed to recover overnight in IMDM+10% heat-inactivated FBS prior to plating 50,000 (STAT3) or 25,000 (STAT6) cells per well in 96-well U-bottom tissue culture plates. Cells were treated with compound for 3 hrs, then stimulated with 10 ng/mL IL-6 (STAT3) or 1 ng/mL IL-4 (STAT6) for 10 min. Cells were then spun down and washed with ice-cold PBS prior to lysing the cell pellet with 1× lysis buffer (CST) with 1× HALT protease and phosphatase inhibitor cocktail (Thermo). Lysates were transferred to and incubated overnight at 4° C. with shaking in QuickPlex 96-well high bind assay plates (MSD) pre-coated overnight with 30 μL per well of 0.6 μg/mL mouse monoclonal anti-STAT3 antibody (STAT3) or 2 μg/mL mouse monoclonal anti-STAT6 antibody (STAT6) in 1×PBS, and pre-blocked for 1 hour with 3% Blocker-A (MSD). Captured protein in the assay plates were then washed and probed with 25 μL per well of 0.25 μg/ml rabbit monoclonal anti-pY705-STAT3 antibody (STAT3) or 0.18 μg/ml rabbit monoclonal Anti-pY641-STAT6 antibody (STAT6) in 1% Blocker-A for 1 hour at room temperature with shaking, then washed and probed with 25 ul per well of 1 ug/mi Sulfo-TAG Labeled Goat Anti-Rabbit Antibody (MSD) in 1% Blocker-A for 1 hour at room temperature with shaking. Assay plates were then washed and 150 μL of 1× Read Buffer-T (MSD) was added to each well prior to reading on an SQ120 MSD Plate Reader. Assay signal from each sample was subtracted by the signal from unstimulated control wells and normalized to DMSO control wells. IC50 values were calculated using Graph Pad Prism Dose-Response Nonlinear Regression with variable slope. For both pSTAT3 and pSTAT6 A=≤100 nM; B=>100-1000 nM; C=>1000-3000 nM; and D=>3 μM.

T1 sequence (P40763 whole entry): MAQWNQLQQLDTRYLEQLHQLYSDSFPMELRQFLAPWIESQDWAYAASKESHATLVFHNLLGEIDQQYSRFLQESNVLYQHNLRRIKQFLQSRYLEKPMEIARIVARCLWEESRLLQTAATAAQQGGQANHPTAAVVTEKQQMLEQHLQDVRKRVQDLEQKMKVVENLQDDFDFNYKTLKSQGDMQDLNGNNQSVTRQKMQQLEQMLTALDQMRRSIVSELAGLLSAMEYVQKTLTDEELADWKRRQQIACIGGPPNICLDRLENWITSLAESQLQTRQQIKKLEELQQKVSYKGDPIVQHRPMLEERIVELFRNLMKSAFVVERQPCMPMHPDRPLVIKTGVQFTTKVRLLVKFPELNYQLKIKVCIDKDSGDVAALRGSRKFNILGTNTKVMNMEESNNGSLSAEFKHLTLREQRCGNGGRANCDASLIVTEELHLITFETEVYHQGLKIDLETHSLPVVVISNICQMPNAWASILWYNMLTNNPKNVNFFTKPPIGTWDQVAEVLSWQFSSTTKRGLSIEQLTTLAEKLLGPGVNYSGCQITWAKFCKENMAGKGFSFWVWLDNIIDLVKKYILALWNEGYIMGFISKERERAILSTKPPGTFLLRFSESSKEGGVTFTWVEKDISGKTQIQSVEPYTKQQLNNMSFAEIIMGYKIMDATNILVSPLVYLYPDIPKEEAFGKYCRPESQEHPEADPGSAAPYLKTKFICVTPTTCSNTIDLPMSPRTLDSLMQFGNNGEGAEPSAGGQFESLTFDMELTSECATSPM

SMILES	IC50 [1] [nM]	IC50 [2] [nM]
CC(C)(C)C(=O)OCOP(=O)(OCOC(=O)C(C)(C)C)[C@@H](F)c1ccc2sc(C(=O)N[C@H]3C[C@@H]4C[C@@H]4C[C@H]4CC[C@@H](C(=O)N5CC(C(=O)N6CCOCC6)C5)N4C3=O)cc2c1 (single isomer, unassigned) [Compound 183, ((((R) or (S)-fluoro(2-(((3S,6S,7aS, 8aR,9aR)-3-(3-(morpholine-4-carbonyl)azetidine-1-carbonyl)-5-oxodecahydro-1H-cyclopropa[d]pyrrolo[1,2-a]azocin-6-yl)carbamoyl)benzo[b]thiophen-5-yl)methyl)phosphoryl)bis(oxy)) bis(methylene) bis(2,2-dimethyl-propanoate)]	< 100	100 to 1000
CC(C)CC(=O)SCCOP(=O)(OCOC(=O)OC(C)C)C(F)(F)c1ccc2sc(C(=O)N[C@H]3C[C@@H]4C[C@@H]4C[C@H]4CC[C@@H](C(=O)N5CC(C(=O)N6CCOCC6)C5)N4C3=O)cc2c1 (stereo partly drawn) [Compound 141, S-(2-(((difluoro(2-(((3S,6S,7aS, 8aR,9aR)-3-(3-(morpholine-4-carbonyl)azetidine-1-carbonyl)-5-oxodecahydro-1H-cyclopropa [d]pyrrolo[1,2-a]azocin-6-yl)carbamoyl)benzo[b]thiophen-5-yl)methyl)(((iso-propoxy-carbonyl)oxy)methoxy)phos-phoryl)oxy)ethyl) 3-methylbutane thioate]	< 100	1000 to 3000
CC(C)CC(=O)SCCOP(=O)(Oc1ccccc1)C(F)(F)c1ccc2sc(C(=O)N[C@H]3C[C@H]4C[C@H]4C[C@H]4CC[C@@H](C(=O)N5CC(n6ccnc6)C5)N4C3=O)cc2c1 (stereo partly drawn) [Compound 196, S-(2-((((2-(((3S,6S,7aR, 8aS,9aR)-3-(3-(1H-imidazol-1-yl)azetidine-1-carbonyl)-5-oxodecahydro-1H-cyclopropa[d]pyrrolo[1,2-a]azocin-6-yl)carbamoyl)benzo[b]thiophen-5-yl)difluoromethyl) (phenoxy)phosphoryl)oxy)ethyl) 3-methylbutane thioate]	< 100	> 3000
CC(C)(CO)C(=O)SCCOP(=O)(OCCSC(=O)C(C)(C)CO)C(F)(F)c1ccc2sc(C(=O)N[C@H]3C[C@@H]4C[C@@H]4C[C@H]4CC[C@@H](C(=O)N5CC(C(=O)N6CCOCC6)C5)N4C3=O)cc2c1 [Compound 131, S,S′-((((difluoro(2-(((3S,6S,7aS, 8aR,9aR)-3-(3-(morpholine-4-carbonyl)azetidine-1-carbonyl)-5-oxodecahydro-1H-cyclopropa[d]pyrrolo[1,2-a]azocin-6-yl)carbamoyl)benzo[b]thiophen-5-yl)methyl)phosphoryl)bis(oxy))bis(ethane-2,1-diyl)) bis(3-hydroxy-2,2-dimethyl-propane-thioate)]	100 to 1000	> 3000
CCCC(=O)SCCOP(=O)(Oc1ccccc1)C(F)(F)c1ccc2sc(C(=O)N[C@H]3C[C@@H]4C[C@@H]4C[C@H]4CC[C@@H](C(=O)N5CC(n6ccnc6)C5)N4C3=O)cc2c1 (stereo partly drawn) [Compound 198, S-(2-((((2-(((3S,6S,7aS, 8aR,9aR)-3-(3-(1H-imidazol-1-yl)azetidine-1-carbonyl)-5-oxodecahydro-1H-cyclopropa[d]pyrrolo[1,2-a]azocin-6-yl)carbamoyl)benzo[b]thiophen-5-yl)difluoromethyl) (phenoxy)phosphoryl)oxy)ethyl) butanethioate]	< 100	1000 to 3000
CC(C)OC(=O)OCOP(=O)(OCOC(=O)OC(C)C)[C@@H](F)c1ccc2sc(C(=O)N[C@H]3C[C@H]4C[C@H]4C[C@H]4CC[C@@H](C(=O)N5CC(c6cccnc6)C5)N4C3=O)cc2c1 [Compound 152, ((((R)-fluoro(2-(((3S,6S,7aR, 8aS,9aR)-5-oxo-3-(3-(pyridin-3-yl)azetidine-1-carbonyl)decahydro-1H-cyclopropa[d]pyrrolo[1,2-a]azocin-6-yl)carbamoyl)benzo[b]thiophen-5-yl)methyl)phosphoryl)bis(oxy)) bis(methylene) diisopropyl bis(carbonate)]	< 100	100 to 1000
CC(C)CC(=O)SCCOP(=O)(Oc1ccccc1)C(F)(F)c1ccc2sc(C(=O)N[C@H]3C[C@@H]4C[C@@H]4C[C@H]4CC[C@@H](C(=O)N5CC(C(=O)N6CCOCC6)C5)N4C3=O)cc2c1 (stereo partly drawn) [Compound 185, S-(2-(((difluoro(2-(((3S,6S,7aS, 8aR,9aR)-3-(3-(morpholine-4-carbonyl)azetidine-1-carbonyl)-5-oxodecahydro-1H-cyclopropa[d]pyrrolo[1,2-a]azocin-6-yl)carbamoyl)benzo[b]thiophen-5-yl)methyl) (phenoxy)phosphoryl)oxy)ethyl) 3-methylbutane thioate]	100 to 1000	> 3000
CC(C)(C)C(=O)OCOP(=O)(OCOC(=O)C(C)(C)C)C(F)(F)c1ccc2sc(C(=O)N[C@H]3C[C@H]4C[C@H]4C[C@H]4CC[C@@H](C(=O)N5C[C@@H](C#N)[C@H](c6ccccc6)C5)N4C3=O)cc2c1 [Compound 140, ((((2-(((3S,6S,7aR, 8aS,9aR)-3-((3S,4R)-3-cyano-4-phenyl-pyrrolidine-1-carbonyl)-5-oxodecahydro-1H-cyclopropa [d]pyrrolo[1,2-a]azocin-6-yl)carbamoyl)benzo[b]thiophen-5-yl)difluoromethyl)phosphoryl)bis(oxy)) bis(methylene) bis(2,2-dimethylpro-panoate)]	< 100	< 100
O=C(OCOP(=O)(OCOC(=O)OC1CCOCC1)C(F)(F)c1ccc2sc(C(=O)N[C@H]3C[C@H]4C[C@H]4C[C@H]4CC[C@@H](C(=O)N5CC(c6cccnc6)C5)N4C3=O)cc2c1)OC1CCOCC1 [Compound 166, (((difluoro(2-(((3S,6S,7aR, 8aS,9aR)-5-oxo-3-(3-(pyridin-3-yl)azetidine-1-carbonyl)decahydro-1H-cyclopropa[d]pyrrolo[1,2-a]azocin-6-yl)carbamoyl)benzo[b]thiophen-5-yl)methyl)phosphoryl)bis(oxy)) bis(methylene) bis(tetrahydro-2H-pyran-4-yl) bis(carbonate)]	< 100	> 3000
CC(C)OC(=O)OCOP(=O)(OCOC(=O)OC(C)C)C(F)(F)c1ccc2sc(C(=O)N[C@H]3C[C@H]4C[C@H]4C[C@H]4CC[C@@H](C(=O)N5CC(c6cccnc6)C5)N4C3=O)cc2c1 [Compound 189, (((difluoro(2-(((3S,6S,7aR, 8aS,9aR)-5-oxo-3-(3-(pyridin-3-yl)azetidine-1-carbonyl)decahydro-1H-cyclopropa[d]pyrrolo[1,2-a]azocin-6-yl)carbamoyl)benzo[b]thiophen-5-yl)methyl)phosphoryl)bis(oxy)) bis(methylene) diisopropyl bis(carbonate)]	< 100	1000 to 3000
